Experimental data as given in patent US9018219B2, “Fused aminodihydropyrimidine derivative” (Shionogi & Co., Ltd., priority 2010, dated 2015).

Columns and labels:
CYP1A2 = target: T1, CYP1A2 (Homo sapiens, UniProt P05177); test: CYP inhibition test (CYP1A2); type: in vitro ADME; conditions: pooled human hepatic microsome 0.2 mg protein/mL, 15 minutes, 37° C.; read-out: IC50 CYP1A2 (7-ethoxyresorufin O-deethylation)
T1 construct: enzyme, pooled human hepatic microsome 0.2 mg protein/mL; from tissue
T1 sequence (P05177 1-516): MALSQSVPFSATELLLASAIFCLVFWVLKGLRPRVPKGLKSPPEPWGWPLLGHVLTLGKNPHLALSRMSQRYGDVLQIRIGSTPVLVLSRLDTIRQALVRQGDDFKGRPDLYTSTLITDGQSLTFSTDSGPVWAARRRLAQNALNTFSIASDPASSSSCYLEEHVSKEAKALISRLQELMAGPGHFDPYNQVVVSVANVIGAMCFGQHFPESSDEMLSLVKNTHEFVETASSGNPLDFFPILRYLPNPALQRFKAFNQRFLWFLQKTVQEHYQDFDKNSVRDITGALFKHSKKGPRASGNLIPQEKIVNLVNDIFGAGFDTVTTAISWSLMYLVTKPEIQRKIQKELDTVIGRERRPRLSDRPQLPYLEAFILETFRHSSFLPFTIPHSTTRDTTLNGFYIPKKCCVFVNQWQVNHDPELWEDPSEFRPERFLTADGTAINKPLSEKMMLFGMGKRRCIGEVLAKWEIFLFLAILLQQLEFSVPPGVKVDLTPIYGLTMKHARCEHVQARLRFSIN
Text: (§1) Using commercially available pooled human hepatic microsome, and employing, as markers, 7-ethoxyresorufin O-deethylation (CYP1A2), tolbutamide methyl-hydroxylation (CYP2C9), mephenyloin 4′-hydroxylation (CYP2C19), dextromethorphan O-demethylation (CYP2D6), and terfenedine hydroxylation (CYP3A4) as typical substrate metabolism reactions of human main five CYP enzyme forms (CYP1A2, 2C9, 2C19, 2D6, 3A4), an inhibitory degree of each metabolite production amount by a compound of the present invention was assessed. […] After the centrifugation at 3000 rpm for 15 minutes, resorufin (CYP1A2 metabolite) in the supernatant was quantified by a multi-label counter and hydroxytolbutamide (CYP2C9 metabolite), 4′-hydroxymephenyloin (CYP2C19 metabolite), dextrorphan (CYP2D6 metabolite), and terfenadine alcohol metabolite (CYP3A4 metabolite) were quantified by LC/MS/MS. Addition of only DMSO being a solvent dissolving a compound to a reaction system was adopted as a control (100%), remaining activity (%) was calculated and IC50 was calculated by reverse presumption by a logistic model using a concentration and an inhibition rate.

CYP2D6 = target: T2, CYP2D6 (Homo sapiens, UniProt P10635); test: CYP inhibition test (CYP2D6); type: in vitro ADME; conditions: pooled human hepatic microsome 0.2 mg protein/mL, 15 minutes, 37° C.; read-out: IC50 CYP2D6 (dextromethorphan O-demethylation)
T2 construct: enzyme, pooled human hepatic microsome 0.2 mg protein/mL; from tissue
T2 sequence (P10635 whole entry): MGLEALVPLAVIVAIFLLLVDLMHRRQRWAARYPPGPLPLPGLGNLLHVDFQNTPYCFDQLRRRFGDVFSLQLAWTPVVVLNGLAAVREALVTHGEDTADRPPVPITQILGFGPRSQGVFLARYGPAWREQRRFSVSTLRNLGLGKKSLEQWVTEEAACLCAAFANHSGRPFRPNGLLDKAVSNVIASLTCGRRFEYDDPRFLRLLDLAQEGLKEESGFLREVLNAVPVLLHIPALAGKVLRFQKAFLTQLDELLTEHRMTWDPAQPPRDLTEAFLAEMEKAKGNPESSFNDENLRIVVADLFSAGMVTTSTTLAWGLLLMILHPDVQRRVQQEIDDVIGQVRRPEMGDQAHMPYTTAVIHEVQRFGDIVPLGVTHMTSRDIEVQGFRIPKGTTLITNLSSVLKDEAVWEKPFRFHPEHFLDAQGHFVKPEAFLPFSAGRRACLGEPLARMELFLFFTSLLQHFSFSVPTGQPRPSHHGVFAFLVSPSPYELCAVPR
Text: as §1

[1] = target: T3, human ether-a-go-go related gene (hERG) channel (Homo sapiens, UniProt Q12809); test: hERG test; type: cell-based; conditions: HEK293 cells expressing hERG channel, whole cell patch clamp, 10 minutes, concentration not given
T3 construct: expressed in transfected cells; host or cells: HEK293
T3 sequence (Q12809 whole entry): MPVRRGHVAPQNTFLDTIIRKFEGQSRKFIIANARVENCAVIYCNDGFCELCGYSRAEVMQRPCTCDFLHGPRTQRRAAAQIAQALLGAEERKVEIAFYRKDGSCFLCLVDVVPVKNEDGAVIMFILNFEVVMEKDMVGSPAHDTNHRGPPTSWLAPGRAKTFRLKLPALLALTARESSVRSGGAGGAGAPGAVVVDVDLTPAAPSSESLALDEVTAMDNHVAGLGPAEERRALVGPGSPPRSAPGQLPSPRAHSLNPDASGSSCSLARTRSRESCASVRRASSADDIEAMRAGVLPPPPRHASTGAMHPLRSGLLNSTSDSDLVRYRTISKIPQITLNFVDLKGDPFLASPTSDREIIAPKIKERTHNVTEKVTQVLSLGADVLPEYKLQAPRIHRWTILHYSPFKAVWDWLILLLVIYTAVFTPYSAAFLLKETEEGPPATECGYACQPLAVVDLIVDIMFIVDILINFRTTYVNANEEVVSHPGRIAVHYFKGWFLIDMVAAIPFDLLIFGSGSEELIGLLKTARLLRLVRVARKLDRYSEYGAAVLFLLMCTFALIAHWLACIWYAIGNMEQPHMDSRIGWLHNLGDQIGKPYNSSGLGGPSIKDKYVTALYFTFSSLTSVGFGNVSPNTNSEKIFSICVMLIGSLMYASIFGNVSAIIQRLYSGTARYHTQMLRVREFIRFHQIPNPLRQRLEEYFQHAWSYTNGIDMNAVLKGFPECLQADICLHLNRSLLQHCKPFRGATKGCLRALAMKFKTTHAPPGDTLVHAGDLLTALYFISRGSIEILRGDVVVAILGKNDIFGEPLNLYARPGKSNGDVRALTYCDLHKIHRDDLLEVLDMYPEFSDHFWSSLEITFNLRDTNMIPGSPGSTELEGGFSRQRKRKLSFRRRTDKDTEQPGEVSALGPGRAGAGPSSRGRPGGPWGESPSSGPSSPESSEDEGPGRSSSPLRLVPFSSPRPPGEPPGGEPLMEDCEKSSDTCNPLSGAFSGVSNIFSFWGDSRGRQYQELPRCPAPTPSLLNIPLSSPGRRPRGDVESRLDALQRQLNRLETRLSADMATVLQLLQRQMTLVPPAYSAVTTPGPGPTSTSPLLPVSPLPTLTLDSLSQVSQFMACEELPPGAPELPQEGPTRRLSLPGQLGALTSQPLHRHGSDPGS
Text: For the purpose of assessing risk of an electrocardiogram QT interval prolongation, effects on delayed rectifier K+ current (IKr), which plays an important role in the ventricular repolarization process, of the compound of the present invention was studied using HEK293 cells expressing human ether-a-go-go related gene (hERG) channel.
A cell was retained at a membrane potential of −80 mV by whole cell patch clamp method using an automated patch clamp system (PatchXpress 7000A, Axon Instruments Inc.) and leakage potential at −50 mV was generated. IKr induced by depolarization pulse stimulation at +40 mV for 2 seconds and, further, repolarization pulse stimulation at −50 mV for 2 seconds was recorded. […] From the recording IKr, an absolute value of the tail peak current was measured based on the current value at the resting membrane potential using an analysis software (DataXpress ver.1, Molecular Devices Corporation). Further, the % inhibition relative to the tail peak current before application of the compound of the present invention was calculated, and compared with the vehicle-applied group (0.1% dimethyl sulfoxide solution) to assess influence of the compound of the present invention on IKr.

CYP3A4 = CYP3A4 (Homo sapiens, UniProt P08684); test: CYP inhibition test (CYP3A4); type: in vitro ADME; set-up: enzyme, pooled human hepatic microsome 0.2 mg protein/mL; from tissue; conditions: pooled human hepatic microsome 0.2 mg protein/mL, 15 minutes, 37° C.; read-out: IC50 CYP3A4 (terfenedine hydroxylation)
CYP3A4, sequence (P08684 whole entry): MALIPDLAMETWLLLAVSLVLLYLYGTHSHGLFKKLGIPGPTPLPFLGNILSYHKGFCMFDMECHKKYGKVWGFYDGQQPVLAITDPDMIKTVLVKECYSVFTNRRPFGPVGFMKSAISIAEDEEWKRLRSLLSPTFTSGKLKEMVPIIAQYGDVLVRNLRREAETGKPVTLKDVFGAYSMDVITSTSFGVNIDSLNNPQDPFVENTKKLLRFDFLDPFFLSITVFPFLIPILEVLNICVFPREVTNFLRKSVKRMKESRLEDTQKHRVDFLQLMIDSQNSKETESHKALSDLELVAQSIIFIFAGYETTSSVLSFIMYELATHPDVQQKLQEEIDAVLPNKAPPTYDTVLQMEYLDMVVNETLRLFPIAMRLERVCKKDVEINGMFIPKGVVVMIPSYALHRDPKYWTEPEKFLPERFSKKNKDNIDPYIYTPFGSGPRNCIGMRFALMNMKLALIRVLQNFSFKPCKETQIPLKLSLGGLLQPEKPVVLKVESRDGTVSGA
Text: as §1

IC50 (CYP1A2): > 20 µM | IC50 (CYP2D6): > 20 µM | IC50 (CYP3A4): > 20 µM
Compound: C[C@@]1(c2cc(-c3cccnc3F)ccc2F)Cc2nccn2C(N)=N1 [Compound I-2]
% inhibition of IKr tail peak current [1]: 12.3%
